Our source for the IC50 values is patent US10399989B2, “Pyrazolopyrimidine derivatives as BTK inhibitors for the treatment of cancer” (Loxo Oncology, Inc., priority 2016, dated 2019).

The target in one experiment is BTK^WT (Homo sapiens (Human), UniProt Q06187). As to the kind of experiment: BTK^WT binding affinity (TR-FRET, LanthaScreen). In short, it runs like this:
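Tracer-displacement TR-FRET: 2.5 nM recombinant BTK, 2 nM Eu anti-His antibody and 15 nM Kinase Tracer 236 in Kinase Buffer A with inhibitor for 5 h. Emission read at 615/665 nm (excitation 340 nm); IC50 from variable-slope fit of log concentration vs response.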

In experiment [1] the test system is OCI-Ly10 human DLBCL cells. Briefly: OCI-Ly10 anti-proliferative activity (Resazurin, 72 h). It is filed as cell-based. Conditions: Homo sapiens, OCI-Ly10, 72 h, read-out: Proliferation OCI-Ly10-IC50. In short, it runs like this: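 Resazurin fluorescence (590 nm, 5 h dye incubation) read after 72 h compound exposure at 37 °C; NFκB-dependent cells seeded at 7.5×10^3/well in 2.5% FBS medium. Day 0 signal subtracted, values normalised to DMSO control; IC50 from log[inhibitor] vs response, variable-slope fit.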
On the technique in general: The colour change of resazurin is a common sign of viable cells or microbes.

Another experiment deals with BTK^C481S (Homo sapiens (Human), UniProt Q06187, C481S). As to the kind of experiment: BTK^C481S binding affinity (TR-FRET, LanthaScreen). The following applies: 5 h incubation. In short, it runs like this:
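Tracer-displacement TR-FRET: 5 nM recombinant kinase, 2 nM Eu anti-His antibody and 30 nM Kinase Tracer 236 incubated 5 h with varying inhibitor in Kinase Buffer A. Read at 340 nm excitation, 615/665 nm emission. IC50 from log[inhibitor]–response variable-slope fit.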

In the next experiment the target is EGFR (Homo sapiens (Human), UniProt P00533). As to the kind of experiment: EGFR binding affinity (TR-FRET, LanthaScreen). The following applies: 5 h incubation. In short, it runs like this:
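IC50 derived by variable-slope fit of TR-FRET signal (ex 340, em 615 and 665 nm) against inhibitor concentration. Mix contained recombinant GST-detected EGFR at 2.5 nM, Eu anti-GST antibody at 2 nM and Kinase Tracer 199 at 3 nM in Kinase Buffer A, 5 h incubation.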
For orientation: TR-FRET usually uses a lanthanide donor and a delayed reading to cut background.

Setting [2] is: TR-FRET binding, 5 h incubation, read-out: BTK^WT IC50.
[3] abbreviates: Table 6, numeric values, read-out: BTK Binding IC50.

Read-outs that look alike come from different tables or passages of the source. Bounds are passed on as bounds.

BTK^WT, sequence (Q06187 whole entry): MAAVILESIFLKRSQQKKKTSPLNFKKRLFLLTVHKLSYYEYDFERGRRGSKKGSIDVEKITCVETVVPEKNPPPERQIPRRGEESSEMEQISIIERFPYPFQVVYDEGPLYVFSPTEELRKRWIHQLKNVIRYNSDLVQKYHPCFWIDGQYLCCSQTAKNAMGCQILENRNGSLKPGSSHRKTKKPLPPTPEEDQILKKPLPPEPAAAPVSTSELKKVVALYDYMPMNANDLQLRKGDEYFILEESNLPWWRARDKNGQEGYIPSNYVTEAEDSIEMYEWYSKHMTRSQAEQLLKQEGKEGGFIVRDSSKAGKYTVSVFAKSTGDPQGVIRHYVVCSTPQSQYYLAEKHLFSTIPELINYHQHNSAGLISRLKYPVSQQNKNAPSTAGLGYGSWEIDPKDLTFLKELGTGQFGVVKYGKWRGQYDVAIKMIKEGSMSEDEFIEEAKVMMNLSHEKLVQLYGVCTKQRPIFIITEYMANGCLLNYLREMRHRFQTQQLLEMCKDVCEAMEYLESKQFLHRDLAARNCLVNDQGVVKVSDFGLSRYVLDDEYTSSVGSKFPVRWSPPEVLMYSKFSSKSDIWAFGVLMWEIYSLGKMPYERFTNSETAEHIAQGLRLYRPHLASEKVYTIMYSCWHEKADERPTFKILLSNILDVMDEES
BTK^C481S, sequence (Q06187 whole entry C481S): as the sequence (Q06187 whole entry) above, with C481S counted along it
EGFR, sequence (P00533 25-1210): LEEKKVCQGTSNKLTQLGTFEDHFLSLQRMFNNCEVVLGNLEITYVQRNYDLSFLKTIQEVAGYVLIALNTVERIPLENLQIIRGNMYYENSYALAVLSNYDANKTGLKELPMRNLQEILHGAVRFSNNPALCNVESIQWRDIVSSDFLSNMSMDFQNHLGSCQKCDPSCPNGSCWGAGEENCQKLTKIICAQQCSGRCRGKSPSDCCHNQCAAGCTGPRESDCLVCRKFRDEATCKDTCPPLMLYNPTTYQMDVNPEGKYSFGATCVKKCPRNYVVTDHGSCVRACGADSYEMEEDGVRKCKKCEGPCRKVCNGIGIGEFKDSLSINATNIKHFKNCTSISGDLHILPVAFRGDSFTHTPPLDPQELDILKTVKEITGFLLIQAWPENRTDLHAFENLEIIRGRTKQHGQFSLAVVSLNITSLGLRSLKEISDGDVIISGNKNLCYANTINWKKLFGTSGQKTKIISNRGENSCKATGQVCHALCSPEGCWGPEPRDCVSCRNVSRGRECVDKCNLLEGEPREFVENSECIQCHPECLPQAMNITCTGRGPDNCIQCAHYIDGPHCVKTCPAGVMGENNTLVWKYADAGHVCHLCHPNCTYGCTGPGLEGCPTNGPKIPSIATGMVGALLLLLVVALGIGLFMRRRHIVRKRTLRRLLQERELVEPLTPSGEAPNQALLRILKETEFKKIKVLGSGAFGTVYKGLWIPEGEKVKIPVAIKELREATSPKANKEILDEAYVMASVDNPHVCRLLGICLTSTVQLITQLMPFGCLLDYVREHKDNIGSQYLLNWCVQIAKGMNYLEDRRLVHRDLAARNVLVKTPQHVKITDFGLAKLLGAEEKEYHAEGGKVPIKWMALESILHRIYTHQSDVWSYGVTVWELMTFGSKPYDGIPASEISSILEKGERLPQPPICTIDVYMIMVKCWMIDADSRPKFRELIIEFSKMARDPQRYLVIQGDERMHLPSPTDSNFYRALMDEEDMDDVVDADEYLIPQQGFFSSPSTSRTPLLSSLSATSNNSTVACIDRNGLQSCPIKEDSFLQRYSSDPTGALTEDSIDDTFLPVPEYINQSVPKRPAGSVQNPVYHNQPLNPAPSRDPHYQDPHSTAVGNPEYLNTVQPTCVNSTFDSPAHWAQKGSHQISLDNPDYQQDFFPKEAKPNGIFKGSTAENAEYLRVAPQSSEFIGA

With `COc1ccccc1C(=O)NCc1ccc(-c2nn(C3CCC4(C3)OCCO4)c3ncnc(N)c23)cc1` (centres unmarked) [Example 25, N-[[4-[4-amino-1-(1,4-dioxaspiro[4.4]nonan-8-yl)pyrazolo[3,4-d]pyrimidin-3-yl]phenyl]methyl]-2-methoxy-benzamide], the IC50 at BTK^WT (setting [2]) is no more than 10 nM; in experiment [1], 10 to 100 nM; at BTK^C481S, no more than 10 nM; at EGFR it was 100 to 1000 nM.

Regarding `COc1ccccc1C(=O)NCc1ccc(-c2nn(C3CCC(=O)CC3)c3ncnc(N)c23)cc1` [Example 26, N-[[4-[4-amino-1-(4-oxocyclohexyl)pyrazolo[3,4-d]pyrimidin-3-yl]phenyl]methyl]-2-methoxy-benzamide], the IC50 was 10 to 100 nM on BTK^WT (setting [2]), 100 to 1000 nM in experiment [1], no more than 10 nM on BTK^C481S and 100 to 1000 nM on EGFR.

With `COc1ccncc1C(=O)NCc1ccc(-c2nn(C3CCCC3)c3ncnc(N)c23)cc1` [Example 27, N-[[4-(4-amino-1-cyclopentyl-pyrazolo[3,4-d]pyrimidin-3-yl)phenyl]methyl]-4-methoxy-pyridine-3-carboxamide], the IC50 at BTK^WT (setting [2]) was in the range of 10 to 100 nM; in experiment [1] it was 100 to 1000 nM; on BTK^C481S it was 10 to 100 nM; at EGFR, 100 to 1000 nM.

Turning to `CNC1CCC(n2nc(-c3ccc(CNC(=O)c4ccccc4OC)cc3)c3c(N)ncnc32)CC1` (centres unmarked) [Example 28, N-[[4-[4-amino-1-[4-(methylamino)cyclohexyl]pyrazolo[3,4-d]pyrimidin-3-yl]phenyl]methyl]-2-methoxy-benzamide], the IC50 on BTK^WT (setting [2]) lay in the range of 10 to 100 nM; in experiment [1], 100 to 1000 nM; on BTK^C481S, 10 to 100 nM; at EGFR it was 100 to 1000 nM.

In the case of `COc1ccccc1C(=O)NCc1ccc(-c2nn(C3CCOCC3)c3ncnc(N)c23)cc1` [Example 29, N-[[4-(4-amino-1-tetrahydropyran-4-yl-pyrazolo[3,4-d]pyrimidin-3-yl)phenyl]methyl]-2-methoxy-benzamide], the IC50 on BTK^WT (setting [2]) was no more than 10 nM; in experiment [1], 100 to 1000 nM; at BTK^C481S, no more than 10 nM; on EGFR, 100 to 1000 nM.

In the case of `COc1ccccc1C(=O)NCc1ccc(-c2nn(C3CCCC(=O)C3)c3ncnc(N)c23)cc1` (centres unmarked) [Example 31, N-[[4-[4-amino-1-(3-oxocyclohexyl)pyrazolo[3,4-d]pyrimidin-3-yl]phenyl]methyl]-2-methoxy-benzamide], the IC50 is no more than 10 nM on BTK^WT (setting [2]), 10 to 100 nM in experiment [1], no more than 10 nM on BTK^C481S and 100 to 1000 nM at EGFR.

For `CCOC(=O)C1CCC(n2nc(-c3ccc(CNC(=O)c4ccccc4OC)cc3)c3c(N)ncnc32)CC1` (centres unmarked) [Example 32, ethyl 4-[4-amino-3-[4-[[(2-methoxybenzoyl)amino]methyl]phenyl]pyrazolo[3,4-d]pyrimidin-1-yl]cyclohexanecarboxylate], the IC50 on BTK^WT (setting [2]) was no more than 10 nM; in experiment [1], 10 to 100 nM; at BTK^C481S it was no more than 10 nM; at EGFR it was 100 to 1000 nM.

In the case of `COc1ccccc1C(=O)NCc1ccc(-c2nn(C3CCCOC3)c3ncnc(N)c23)cc1` (centres unmarked) [Example 34, N-[[4-(4-amino-1-tetrahydropyran-3-yl-pyrazolo[3,4-d]pyrimidin-3-yl)phenyl]methyl]-2-methoxy-benzamide], the IC50 on BTK^WT (setting [2]) was no more than 10 nM; in experiment [1], 10 to 100 nM; on BTK^C481S it was no more than 10 nM; on EGFR it was 1000 to 10000 nM.

For the molecule `COc1ccccc1C(=O)NCc1ccc(-c2nn([C@H]3C=C[C@H](OC(C)=O)C3)c3ncnc(N)c23)cc1` [Example 35, [(1R,4R)-4-[4-amino-3-[4-[[(2-methoxybenzoyl)amino]methyl]phenyl]pyrazolo[3,4-d]pyrimidin-1-yl]cyclopent-2-en-1-yl] acetate], the IC50 was no more than 10 nM on BTK^WT (setting [2]), 10 to 100 nM in experiment [1], no more than 10 nM at BTK^C481S and 10 to 100 nM at EGFR.

As for `COc1ccccc1C(=O)NCc1ccc(-c2nn([C@H]3C=C[C@H](O)C3)c3ncnc(N)c23)cc1` [Example 36, N-[[4-[4-amino-1-[(1R,4R)-4-hydroxycyclopent-2-en-1-yl]pyrazolo[3,4-d]pyrimidin-3-yl]phenyl]methyl]-2-methoxy-benzamide], the IC50 at BTK^WT (setting [2]) was no more than 10 nM; in experiment [1], 100 to 1000 nM; at BTK^C481S, no more than 10 nM; at EGFR it was 100 to 1000 nM.

Regarding `COc1ccccc1C(=O)NCc1ccc(-c2nn(C3CCCC(O)C3)c3ncnc(N)c23)cc1` (centres unmarked) [Example 37, N-[[4-[4-amino-1-(3-hydroxycyclohexyl)pyrazolo[3,4-d]pyrimidin-3-yl]phenyl]methyl]-2-methoxy-benzamide], the IC50 at BTK^WT (setting [2]) is no more than 10 nM; at BTK^WT (setting [3]), 1.7 nM; in experiment [1], 100 to 1000 nM; at BTK^C481S, no more than 10 nM; at EGFR, 100 to 1000 nM.

Regarding `COc1ccccc1C(=O)NCc1ccc(-n2nc(C3CCCC3)c3ncnc(N)c32)cc1` [Example 38, N-[[4-(7-amino-3-cyclopentyl-pyrazolo[4,3-d]pyrimidin-1-yl)phenyl]methyl]-2-methoxy-benzamide], the IC50 is no more than 10 nM at BTK^WT (setting [2]), 10 to 100 nM in experiment [1], no more than 10 nM at BTK^C481S and 10 to 100 nM on EGFR.

On to `COc1ccccc1C(=O)NCc1ccc(-c2nn(C3CCC(OC)CC3)c3ncnc(N)c23)cc1` (centres unmarked) [Example 39, N-[[4-[4-amino-1-(4-methoxycyclohexyl)pyrazolo[3,4-d]pyrimidin-3-yl]phenyl]methyl]-2-methoxy-benzamide], for which the IC50 on BTK^WT (setting [2]) is no more than 10 nM; at BTK^WT (setting [3]), 1.4 nM; in experiment [1], 10 to 100 nM; on BTK^C481S it was no more than 10 nM; at EGFR, 100 to 1000 nM.

For `COc1ccccc1C(=O)NCc1ccc(-c2nn(C3CC=CC3)c3ncnc(N)c23)cc1` [Example 40, N-[[4-(4-amino-1-cyclopent-3-en-1-yl-pyrazolo[3,4-d]pyrimidin-3-yl)phenyl]methyl]-2-methoxy-benzamide], the IC50 was no more than 10 nM at BTK^WT (setting [2]), 10 to 100 nM in experiment [1], no more than 10 nM at BTK^C481S and 100 to 1000 nM at EGFR.

In the case of `CCOC(=O)C1CCCC(n2nc(-c3ccc(CNC(=O)c4ccccc4OC)cc3)c3c(N)ncnc32)C1` (centres unmarked) [Example 41, ethyl 3-[4-amino-3-[4-[[(2-methoxybenzoyl)amino]methyl]phenyl]pyrazolo[3,4-d]pyrimidin-1-yl]cyclohexanecarboxylate], the IC50 at BTK^WT (setting [2]) was no more than 10 nM; on BTK^WT (setting [3]), 1.2 nM; in experiment [1], 100 to 1000 nM; at BTK^C481S, no more than 10 nM; on EGFR it was 100 to 1000 nM.

Consider `COc1ccccc1C(=O)NCc1ccc(-c2nn(C3CCCC(C(=O)N(C)C)C3)c3ncnc(N)c23)cc1` (centres unmarked) [Example 42, N-[[4-[4-amino-1-[3-(dimethylcarbamoyl)cyclohexyl]pyrazolo[3,4-d]pyrimidin-3-yl]phenyl]methyl]-2-methoxy-benzamide], for which the IC50 on BTK^WT (setting [2]) was no more than 10 nM; in experiment [1] it was 100 to 1000 nM; at BTK^C481S, no more than 10 nM; at EGFR, 1000 to 10000 nM.

Regarding `COc1ccc(F)cc1C(=O)NCc1ccc(-c2nn(C(C)(C)C)c3ncnc(N)c23)cc1` [Example 43, N-[[4-(4-amino-1-tert-butyl-pyrazolo[3,4-d]pyrimidin-3-yl)phenyl]methyl]-5-fluoro-2-methoxy-benzamide], the IC50 on BTK^WT (setting [2]) is no more than 10 nM; in experiment [1], 10 to 100 nM; on BTK^C481S, no more than 10 nM; at EGFR, 100 to 1000 nM.

Turning to `COc1ccccc1C(=O)NCc1ccc(-c2nn([C@@H]3C=C[C@H](O)C3)c3ncnc(N)c23)cc1` [Example 44, N-[[4-[4-amino-1-[(1S,4R)-4-hydroxycyclopent-2-en-1-yl]pyrazolo[3,4-d]pyrimidin-3-yl]phenyl]methyl]-2-methoxy-benzamide], the IC50 is no more than 10 nM at BTK^WT (setting [2]), 100 to 1000 nM in experiment [1], no more than 10 nM at BTK^C481S and 1000 to 10000 nM on EGFR.

Take `COc1ccccc1C(=O)NCc1ccc(-c2nn([C@@H]3C[C@@H](O)C4CC43)c3ncnc(N)c23)cc1` (stereo partly drawn) [Example 45, N-[[4-[4-amino-1-[(2R,4R)-4-hydroxy-2-bicyclo[3.1.0]hexanyl]pyrazolo[3,4-d]pyrimidin-3-yl]phenyl]methyl]-2-methoxy-benzamide]: the IC50 on BTK^WT (setting [2]) is no more than 10 nM; in experiment [1] it was 100 to 1000 nM; at BTK^C481S, no more than 10 nM; at EGFR it was 100 to 1000 nM.

For the molecule `COc1ccccc1C(=O)NCc1ccc(-c2nn(C3CCC(OC(=O)c4ccc(C)cc4)CC3)c3ncnc(N)c23)cc1` (centres unmarked) [Example 46, [4-[4-amino-3-[4-[[(2-methoxybenzoyl)amino]methyl]phenyl]pyrazolo[3,4-d]pyrimidin-1-yl]cyclohexyl] 4-methylbenzoate], the IC50 at BTK^WT (setting [2]) lay in the range of 10 to 100 nM; in experiment [1], 100 to 1000 nM; at BTK^C481S it was 10 to 100 nM; at EGFR, 100 to 1000 nM.
